Values quoted from earlier work as cited in patent US20220273802A1, “METHODS FOR IMPROVED DELIVERY OF AMINOTHIOLS, DIMERS OF AMINOTHIOLS, AND HETERODIMERS COMPOSED OF AMINOTHIOLS” (THE BURLINGTON HC RESEARCH GROUP, INC., priority 2012, published 2022).

What was measured:
V79 cells = conditions: for activity if present outside of V79 cells: compound present outside of cells
mouse L cells = conditions: for radioprotective effect upon mouse L cells in culture: compound alone, without dephosphorylation
SIV = conditions: later studies
[1] = test system: three species of adenovirus

Row | SMILES | activity if present outside of V79 cells (V79 cells) | radioprotective effect upon mouse L cells in culture (mouse L cells) | radioprotective activity (mouse L cells; incubated with mouse liver homogenate (active alkaline phosphatase)) | protection against gamma-radiation (V79 cells; correlated with intracellular levels) | antiviral efficacy against HIV (HIV) | efficacy against SIV (SIV) | antiviral efficacy against influenza virus A and B (influenza virus A and B) | antiviral efficacy against three species of adenovirus [1]
1 | NCCCNCCSSCCNCCCN [WR-33278] | did not show evidence of activity | – | – | – | – | – | – | –
2 | NCCCNCCSP(=O)(O)O [Amifostine] | did not show evidence of activity | no radioprotective effect | radioprotective activity was observed | – | – | – | – | –
3 | NCCCNCCSSCC(N)C(=O)O (stereo not drawn) [WR-1065-Cys] | did not show evidence of activity | – | – | – | – | – | – | –
4 | NCCCNCCS [WR-1065] | did not show evidence of activity | Activity also was observed | – | significant protection | exhibits antiviral efficacy | demonstrated efficacy | exhibits antiviral efficacy | exhibits antiviral efficacy
